{"source": "ChEMBL document CHEMBL1121544", "about": "“Synthesis, absorption, and toxicity of N1,N8-bis(2,3-dihydroxybenzoyl)spermidine, a potent iron chelator” (J Med Chem, 1980)", "assay_type_in_all_cases": "functional, organism-based", "key": {"Rattus norvegicus [1]": {"organism": "Rattus norvegicus", "experiment": "% chelator inside the intestinal sac in animal 1 at lower (distal) segment of the intestine starting from the proximal end"}, "Rattus norvegicus [2]": {"organism": "Rattus norvegicus", "experiment": "% chelator inside the intestinal sac in animal 1 at middle segment of the intestine starting from the proximal end."}, "Rattus norvegicus [3]": {"organism": "Rattus norvegicus", "experiment": "% chelator inside the intestinal sac in animal 1 at upper segment of the intestine starting from the proximal end."}, "Rattus norvegicus [4]": {"organism": "Rattus norvegicus", "experiment": "% chelator inside the intestinal sac in animal 2 at lower (distal) segment of the intestine starting from the proximal end"}, "Rattus norvegicus [5]": {"organism": "Rattus norvegicus", "experiment": "% chelator inside the intestinal sac in animal 2 at middle segment of the intestine starting from the proximal end."}, "Rattus norvegicus [6]": {"organism": "Rattus norvegicus", "experiment": "% chelator inside the intestinal sac in animal 2 at upper segment of the intestine starting from the proximal end."}, "Rattus norvegicus [7]": {"organism": "Rattus norvegicus", "experiment": "% chelator inside the intestinal sac in animal 3 at lower (distal) segment of the intestine starting from the proximal end"}, "Rattus norvegicus [8]": {"organism": "Rattus norvegicus", "experiment": "% chelator inside the intestinal sac in animal 3 at middle segment of the intestine starting from the proximal end."}, "Rattus norvegicus [9]": {"organism": "Rattus norvegicus", "experiment": "% chelator inside the intestinal sac in animal 3 at upper segment of the intestine starting from the proximal end."}}}
{"smiles": "O=C(NCCCCNCCCNC(=O)c1cccc(O)c1O)c1cccc(O)c1O", "values": [{"measurement": "Chelator", "setting": "Rattus norvegicus [1]", "value": 44, "unit": "%"}, {"measurement": "Chelator", "setting": "Rattus norvegicus [2]", "value": 40, "unit": "%"}, {"measurement": "Chelator", "setting": "Rattus norvegicus [3]", "value": 42, "unit": "%"}, {"measurement": "Chelator", "setting": "Rattus norvegicus [4]", "value": 32, "unit": "%"}, {"measurement": "Chelator", "setting": "Rattus norvegicus [5]", "value": 35, "unit": "%"}, {"measurement": "Chelator", "setting": "Rattus norvegicus [6]", "value": 33, "unit": "%"}, {"measurement": "Chelator", "setting": "Rattus norvegicus [7]", "value": 50, "unit": "%"}, {"measurement": "Chelator", "setting": "Rattus norvegicus [8]", "value": 44, "unit": "%"}, {"measurement": "Chelator", "setting": "Rattus norvegicus [9]", "value": 32, "unit": "%"}]}
